ChEMBL document CHEMBL5370605, “Discovery of Novel Fedratinib-Based HDAC/JAK/BRD4 Triple Inhibitors with Remarkable Antitumor Activity against Triple Negative Breast Cancer” (J Med Chem, 2023)

Assays:
[1] = Half life in ICR (CD-1) mouse at 50 mg/kg, ip measured for 24 hrs by LC-MS/MS analysis; format: ADME, organism-based; conditions: in vivo
[2] = AUC (0 to t) in ICR (CD-1) mouse at 10 mg/kg, iv measured for 24 hrs by LC-MS/MS analysis; format: ADME, organism-based; design: dose 10 mg/kg, time 24 hrs, route iv; conditions: in vivo
[3] = AUC (0 to t) in ICR (CD-1) mouse at 50 mg/kg, ip measured for 24 hrs by LC-MS/MS analysis; format: ADME, organism-based; design: dose 50 mg/kg, time 24 hrs, route ip; conditions: in vivo
[4] = Volume of distribution at steady state in ICR (CD-1) mouse at 10 mg/kg, iv measured for 24 hrs by LC-MS/MS analysis; format: ADME, organism-based; conditions: in vivo
[5] = target: T1, Protein deacetylase HDAC6 (Homo sapiens, UniProt Q9UBN7); test: Inhibition of HDAC6 (unknown origin) using Boc-Lys(Ac)-AMC as substrate incubated for 30 mins by fluorescence based analysis
T1 sequence (Q9UBN7 whole entry): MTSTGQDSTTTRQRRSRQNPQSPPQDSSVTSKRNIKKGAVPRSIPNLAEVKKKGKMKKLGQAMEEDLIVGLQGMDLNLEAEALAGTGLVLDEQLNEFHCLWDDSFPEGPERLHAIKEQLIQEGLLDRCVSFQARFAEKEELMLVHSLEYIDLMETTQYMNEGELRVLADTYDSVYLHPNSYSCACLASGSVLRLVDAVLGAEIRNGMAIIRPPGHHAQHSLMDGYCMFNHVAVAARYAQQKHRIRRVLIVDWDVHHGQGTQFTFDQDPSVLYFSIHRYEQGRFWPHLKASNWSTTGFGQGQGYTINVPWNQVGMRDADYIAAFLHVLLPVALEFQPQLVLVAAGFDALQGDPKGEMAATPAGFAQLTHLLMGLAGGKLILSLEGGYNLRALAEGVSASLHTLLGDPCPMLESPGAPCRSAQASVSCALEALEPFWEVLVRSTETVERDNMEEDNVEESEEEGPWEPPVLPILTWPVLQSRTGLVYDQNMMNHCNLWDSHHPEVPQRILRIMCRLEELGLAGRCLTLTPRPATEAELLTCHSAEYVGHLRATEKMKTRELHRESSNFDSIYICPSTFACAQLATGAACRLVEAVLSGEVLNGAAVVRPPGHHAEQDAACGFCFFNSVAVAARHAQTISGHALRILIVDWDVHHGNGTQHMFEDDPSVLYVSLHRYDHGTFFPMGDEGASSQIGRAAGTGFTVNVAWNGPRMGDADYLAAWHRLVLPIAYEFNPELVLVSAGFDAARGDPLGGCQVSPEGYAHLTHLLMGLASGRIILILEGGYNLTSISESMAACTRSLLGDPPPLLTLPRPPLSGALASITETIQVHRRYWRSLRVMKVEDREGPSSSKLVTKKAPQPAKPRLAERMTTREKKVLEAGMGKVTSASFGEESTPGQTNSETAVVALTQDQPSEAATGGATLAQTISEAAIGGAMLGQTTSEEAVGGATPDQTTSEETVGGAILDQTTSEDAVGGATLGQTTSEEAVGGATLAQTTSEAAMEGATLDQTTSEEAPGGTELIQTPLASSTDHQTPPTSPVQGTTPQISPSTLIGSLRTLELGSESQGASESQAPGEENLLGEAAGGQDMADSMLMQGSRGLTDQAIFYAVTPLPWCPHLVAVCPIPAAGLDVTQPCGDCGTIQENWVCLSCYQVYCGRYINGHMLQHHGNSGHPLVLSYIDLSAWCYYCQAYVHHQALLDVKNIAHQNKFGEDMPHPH

[6] = target: T2, Tyrosine-protein kinase JAK3 (Homo sapiens, UniProt P52333); test: Inhibition of JAK3 (unknown origin) incubated for 40 mins in presence of ATP by Kinase-glo luminescent assay
T2 sequence (P52333 whole entry): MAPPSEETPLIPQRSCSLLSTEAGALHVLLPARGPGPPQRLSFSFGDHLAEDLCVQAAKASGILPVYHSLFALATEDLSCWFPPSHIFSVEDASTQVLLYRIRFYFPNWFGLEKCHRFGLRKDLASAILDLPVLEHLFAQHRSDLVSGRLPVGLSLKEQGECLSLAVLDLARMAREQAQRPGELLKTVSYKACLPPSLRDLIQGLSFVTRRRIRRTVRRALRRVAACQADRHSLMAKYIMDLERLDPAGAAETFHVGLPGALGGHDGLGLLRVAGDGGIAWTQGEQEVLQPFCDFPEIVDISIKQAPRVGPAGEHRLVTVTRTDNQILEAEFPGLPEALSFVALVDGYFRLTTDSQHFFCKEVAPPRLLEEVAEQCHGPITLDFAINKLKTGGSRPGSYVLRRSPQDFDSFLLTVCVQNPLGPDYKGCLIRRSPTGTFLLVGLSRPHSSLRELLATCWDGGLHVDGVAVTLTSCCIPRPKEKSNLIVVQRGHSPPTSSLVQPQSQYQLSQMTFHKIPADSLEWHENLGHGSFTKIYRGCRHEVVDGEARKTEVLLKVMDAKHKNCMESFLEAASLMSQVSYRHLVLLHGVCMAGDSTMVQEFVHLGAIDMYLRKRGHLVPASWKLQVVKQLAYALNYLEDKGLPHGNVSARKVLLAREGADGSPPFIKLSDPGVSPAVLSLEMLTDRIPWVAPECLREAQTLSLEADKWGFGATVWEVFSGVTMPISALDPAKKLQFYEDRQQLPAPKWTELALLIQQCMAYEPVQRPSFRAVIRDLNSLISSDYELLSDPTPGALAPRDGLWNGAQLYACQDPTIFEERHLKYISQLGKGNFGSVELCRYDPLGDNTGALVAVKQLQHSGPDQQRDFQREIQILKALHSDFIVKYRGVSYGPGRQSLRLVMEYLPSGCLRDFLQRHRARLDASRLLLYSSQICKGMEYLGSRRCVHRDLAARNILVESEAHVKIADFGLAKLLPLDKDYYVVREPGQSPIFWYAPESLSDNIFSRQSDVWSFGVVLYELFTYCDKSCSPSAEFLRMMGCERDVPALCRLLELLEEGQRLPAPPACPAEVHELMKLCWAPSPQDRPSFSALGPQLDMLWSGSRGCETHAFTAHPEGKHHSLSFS

[7] = target: Non-receptor tyrosine-protein kinase TYK2 (Homo sapiens, UniProt P29597); test: Inhibition of TYK2 (unknown origin) incubated for 40 mins in presence of ATP by Kinase-glo luminescent assay
Non-receptor tyrosine-protein kinase TYK2, sequence (P29597 whole entry): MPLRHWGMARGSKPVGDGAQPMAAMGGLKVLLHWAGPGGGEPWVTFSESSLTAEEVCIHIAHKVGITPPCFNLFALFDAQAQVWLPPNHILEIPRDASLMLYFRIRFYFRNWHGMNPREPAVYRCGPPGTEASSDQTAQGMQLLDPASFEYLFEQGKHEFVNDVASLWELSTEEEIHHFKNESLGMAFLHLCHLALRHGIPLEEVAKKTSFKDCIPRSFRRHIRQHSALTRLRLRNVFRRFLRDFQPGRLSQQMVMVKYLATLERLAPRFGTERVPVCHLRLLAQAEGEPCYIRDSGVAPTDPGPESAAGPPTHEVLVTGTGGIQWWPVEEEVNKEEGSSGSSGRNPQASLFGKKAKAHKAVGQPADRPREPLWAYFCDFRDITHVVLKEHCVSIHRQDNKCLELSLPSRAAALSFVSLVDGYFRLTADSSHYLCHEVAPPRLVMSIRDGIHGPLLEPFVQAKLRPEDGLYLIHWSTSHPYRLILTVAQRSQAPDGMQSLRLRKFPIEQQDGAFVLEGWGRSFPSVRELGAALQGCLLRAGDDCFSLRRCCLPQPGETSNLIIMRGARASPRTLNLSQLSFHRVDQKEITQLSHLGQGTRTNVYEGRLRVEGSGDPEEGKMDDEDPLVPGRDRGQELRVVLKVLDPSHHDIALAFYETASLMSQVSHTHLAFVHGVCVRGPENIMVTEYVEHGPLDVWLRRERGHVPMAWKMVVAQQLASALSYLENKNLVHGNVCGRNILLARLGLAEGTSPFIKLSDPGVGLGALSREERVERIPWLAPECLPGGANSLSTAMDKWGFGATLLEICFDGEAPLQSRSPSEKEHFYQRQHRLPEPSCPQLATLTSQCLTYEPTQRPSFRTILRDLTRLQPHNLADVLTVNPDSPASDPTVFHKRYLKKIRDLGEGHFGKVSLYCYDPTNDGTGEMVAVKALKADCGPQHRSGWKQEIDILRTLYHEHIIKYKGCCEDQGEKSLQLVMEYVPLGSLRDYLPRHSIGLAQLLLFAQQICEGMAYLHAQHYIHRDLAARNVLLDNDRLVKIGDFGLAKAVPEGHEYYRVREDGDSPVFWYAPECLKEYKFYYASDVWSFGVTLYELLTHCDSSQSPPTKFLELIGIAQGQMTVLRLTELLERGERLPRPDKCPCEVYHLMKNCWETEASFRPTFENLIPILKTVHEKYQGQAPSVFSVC

- half-life [1]: 2.51 h
- AUCt [2]: 1951 ng·h/mL
- AUC(0-t) at 24 h [3]: 14800 ng·h/mL
- Vdss [4]: 8.84 L/kg
- IC50 [5]: 270 nM
- IC50 [6]: 91 nM
- IC50 [7]: 99 nM
SMILES: Cc1cnc(Nc2ccc(OCCN3CCCC3)cc2)nc1Nc1ccc(C(=O)NO)cc1
